{
  "source": "patent US20050058600A1",
  "about": "“3,3'-Diindolylmethane antiandrogenic compositions” (priority 2003, published 2005)",
  "key": {"[1]": {"system": "wild-type recombinant human AR", "test": "Competitive [3H]DHT binding assay, recombinant AR protein", "conditions": "micromolar concentration range"}, "[2]": {"system": "benzo(a)pyrene (BP)-induced tumors of the forestomach", "conditions": "mice; cited from earlier work"}, "mutant AR of LNCaP cells": {"target": "T1, mutant AR of LNCaP cells (Homo sapiens, UniProt P10275, T878A)", "T1 construct": "95 μL of either LNCaP cell extracts or recombinant AR protein; endogenous in cells; host or cells: LNCaP", "T1 sequence (P10275 1-920 T878A)": "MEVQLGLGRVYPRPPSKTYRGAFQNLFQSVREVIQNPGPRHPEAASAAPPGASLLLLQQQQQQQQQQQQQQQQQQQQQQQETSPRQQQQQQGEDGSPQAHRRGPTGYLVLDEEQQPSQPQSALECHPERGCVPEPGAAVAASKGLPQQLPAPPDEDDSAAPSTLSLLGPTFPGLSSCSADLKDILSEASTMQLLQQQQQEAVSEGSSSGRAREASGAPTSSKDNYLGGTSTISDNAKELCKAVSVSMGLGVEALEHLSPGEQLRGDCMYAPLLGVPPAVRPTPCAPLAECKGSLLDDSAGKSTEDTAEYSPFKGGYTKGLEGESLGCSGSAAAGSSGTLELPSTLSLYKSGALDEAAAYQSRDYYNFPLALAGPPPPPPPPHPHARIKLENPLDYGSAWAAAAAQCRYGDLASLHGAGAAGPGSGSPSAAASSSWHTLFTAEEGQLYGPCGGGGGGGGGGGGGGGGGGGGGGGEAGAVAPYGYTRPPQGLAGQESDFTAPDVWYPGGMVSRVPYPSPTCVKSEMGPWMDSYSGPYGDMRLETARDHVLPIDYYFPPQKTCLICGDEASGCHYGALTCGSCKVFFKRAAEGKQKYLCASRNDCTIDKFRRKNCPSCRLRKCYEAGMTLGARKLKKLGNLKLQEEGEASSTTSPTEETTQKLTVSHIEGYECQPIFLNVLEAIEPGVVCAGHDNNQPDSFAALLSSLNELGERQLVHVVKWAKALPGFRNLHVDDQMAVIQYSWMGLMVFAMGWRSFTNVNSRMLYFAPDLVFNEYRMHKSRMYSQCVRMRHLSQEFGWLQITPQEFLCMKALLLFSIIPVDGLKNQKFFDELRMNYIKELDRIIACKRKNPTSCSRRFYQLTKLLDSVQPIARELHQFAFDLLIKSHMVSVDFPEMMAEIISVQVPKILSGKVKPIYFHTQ", "test": "Competitive [3H]DHT binding assay, LNCaP cell extracts", "conditions": "micromolar concentration range", "experimental": "Hormone Binding Assay. LNCaP cells were grown in 5% DCC-FBS-DMEM medium supplemented with 4.0 g/L glucose and 3.7 g/L sodium bicarbonate and harvested in HBS containing 1.5 mM EDTA by scraping with a rubber policeman. The cells were placed on ice, collected by centrifugation, washed with ice-cold TKEG buffer (20 mM Tris-HCl pH 7.4, 50 mM KCl, 1 mM EDTA, 0.1 mM PMSF, and 10% glycerol) and resuspended in 250 μL/plate homogenization buffer (50 mM Tris-HCl pH 7.4, 1.5 mM EDTA, 10 mM sodium molybdate, 2.5 mM β-mercaptoethanol, 50 mM KCl, 0.1 mM PMSF, and 10% glycerol). Cells were homogenized using a Polytron apparatus at medium speed for 1 min on ice. The homogenates were centrifuged at 50,000 rpm in 4° C. for 60 min. The supernatant solution was divided into 1.0 mL aliquots, quickly frozen in a dry-ice/ethanol bath and stored at −80° C. Protein concentration was determined by the Bradford assay using bovine serum albumin as the standard. […] Competitive ligands were added as 1.0 μL of 100× solution in DMSO. After mixing, 95 μL of either LNCaP cell extracts or recombinant AR protein (PanVera, Madison, Wis.) was added and the solutions were vortexed and incubated at room temperature for 2-3 h. […]"}, "[3]": {"system": "dimethylbenzanthracene (DMBA)-induced mammary tumors", "conditions": "rats; cited from earlier work"}, "LNCaP cells": {"system": "LNCaP cells", "test": "LNCaP cell proliferation (cell counting)", "type": "cell-based", "conditions": "Homo sapiens, 96 h treatment, read-out: maximal inhibition of LNCaP cell proliferation", "procedure": "DIM was prepared from I3C as described (26-28) and recrystallized in toluene. The human prostate adenocarcinoma cell lines LNCaP-FGC and PC-3 were obtained from the American Type Culture Collection (Rockville, Md.). They were grown as adherent monolayers in 10% FBS-DMEM, supplemented with 4.0 g/L glucose and 3.7 g/L sodium bicarbonate in a humidified incubator at 37° C. and 5% CO2 and passaged at approximately 80% confluency. Cultures used in subsequent experiments were at less than 40 passages. Cells grown in stripped conditions were in 5% DCC-FBS-DMEM base supplemented with 4.0 g/L glucose, 3.7 g/L sodium bicarbonate, and 0.293 g/L L-Glutamine.\nCell Growth. Before the beginning of the treatments, cells were depleted of androgen for 4-7 d in medium composed of DMEM base without phenol-red and with 4.0 g/L glucose and 3.7 g/L sodium bicarbonate. During the depletion period, medium was changed every 48 h. Treatments were administered by addition of 1 μL of 1,000× solution in DMSO per mL of medium. Once the treatment period started, medium was changed daily to counter possible loss of readily metabolized compounds.\nCell Counting. Cells were harvested by trypsinization and resuspended in culture medium. Aliquots were diluted 50-fold in Isoton II (Coulter Corp., Miami, Fla.) and 200 μL duplicates were counted in a model Z1 Coulter particle counter and averaged."}, "AR": {"target": "T2, AR (Homo sapiens, UniProt P10275, T878A)", "T2 construct": "95 μL of either LNCaP cell extracts or recombinant AR protein; endogenous in cells; host or cells: LNCaP", "T2 sequence (P10275 1-920 T878A)": "T1 sequence (P10275 1-920 T878A)", "test": "MMTV-Luc / pPSA-Luc reporter assay in LNCaP cells", "type": "cell-based", "procedure": "Plasmid Reporters and Expression Vectors. The ARE responsive luciferase reporter plasmid, pPSA-630 luciferase (pPSA-Luc) was prepared as previously described (29). pPSA-Luc contains the PSA promoter region (−630 to 12) with three AREs, all of which are critical to the activity of the pPSA-Luc promoter. The MMTV-Luc contains one consensus ARE and the expression vector, pCMV-hAR constitutively expresses a fully functional human androgen receptor. The pCMV-GFP-rAR was prepared as previously described (30).\nTransient Transfections with Reporters and Luciferase Assay. LNCaP and PC-3 cells were transfected, with some modifications, as previously described (20). For AR transactivation, cells were transfected with 0.1 μg of MMTV-Luc or pPSA-Luc per plate. Co-transfection experiments with pCMV-hAR or pCMV-GFP-rAR, 0.1 μg per plate was also used. For experiments involving GFP fluorescence imaging, treatments were not added until 30 h after transfection."}},
  "data": [
    {"molecule": "c1ccc2c(Cc3c[nH]c4ccccc34)c[nH]c2c1", "note": "[DIM, 3,3′-diindolylmethane]", "values": [
      {"measurement": "competition with labeled DHT for binding to the AR", "setting": "[1]", "value": "competes with labeled DHT for binding to the AR"},
      {"measurement": "incidence of BP-induced tumors of the forestomach", "setting": "[2]", "value": "reduced the incidence"},
      {"measurement": "competition with labeled DHT for binding to the AR", "setting": "mutant AR of LNCaP cells", "value": "competes with labeled DHT for binding to the AR"},
      {"measurement": "incidence of DMBA-induced mammary tumors", "setting": "[3]", "value": "reduced the incidence"},
      {"measurement": "inhibition at 50 µM", "setting": "LNCaP cells", "value": 70, "unit": "%"},
      {"measurement": "inhibition at 1 µM", "setting": "AR; read-out: inhibition of DHT induction of androgen-responsive genes, 1 μM, both MMTV-Luc and pPSA-Luc", "value": "> 50", "unit": "%"},
      {"measurement": "inhibition at 10 µM", "setting": "AR; read-out: inhibition of DHT induction of androgen-responsive genes, 10 μM, both MMTV-Luc and pPSA-Luc", "value": "> 90", "unit": "%"},
      {"measurement": "transactivation of reporter genes by compound alone", "setting": "AR; without DHT", "value": "failed to induce transactivation"}
    ]}
  ]
}
